The source of these data is US8268862B2, “Sirtuin modulating compounds” (Sirtris Pharmaceuticals, Inc., priority 2007, dated 2012).

In the assay the target is T1, SIRT1 (Homo sapiens, UniProt Q96EB6).
T1 sequence (Q96EB6 1-747): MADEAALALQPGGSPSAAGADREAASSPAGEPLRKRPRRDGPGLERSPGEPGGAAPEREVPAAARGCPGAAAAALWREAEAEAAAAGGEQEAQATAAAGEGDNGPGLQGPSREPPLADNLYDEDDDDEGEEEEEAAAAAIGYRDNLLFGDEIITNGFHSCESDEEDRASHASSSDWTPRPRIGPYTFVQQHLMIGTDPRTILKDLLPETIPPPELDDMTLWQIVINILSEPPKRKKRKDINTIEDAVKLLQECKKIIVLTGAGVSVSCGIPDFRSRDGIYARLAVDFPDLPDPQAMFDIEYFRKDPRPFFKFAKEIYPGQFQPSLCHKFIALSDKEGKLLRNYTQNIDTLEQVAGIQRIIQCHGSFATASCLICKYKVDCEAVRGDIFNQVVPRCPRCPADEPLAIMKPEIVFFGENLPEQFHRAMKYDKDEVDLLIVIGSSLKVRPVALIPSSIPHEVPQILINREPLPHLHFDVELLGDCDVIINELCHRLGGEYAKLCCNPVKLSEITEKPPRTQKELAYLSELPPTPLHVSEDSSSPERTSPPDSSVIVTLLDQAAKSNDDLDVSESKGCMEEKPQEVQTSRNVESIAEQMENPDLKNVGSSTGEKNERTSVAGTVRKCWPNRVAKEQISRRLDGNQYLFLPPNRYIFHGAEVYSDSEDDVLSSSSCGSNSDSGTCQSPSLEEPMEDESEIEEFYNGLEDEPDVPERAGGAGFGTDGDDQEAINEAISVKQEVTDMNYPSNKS
The experiment in a line: mass spectrometry based SIRT1 deacetylation assay (activation). The conditions noted are these: 0.5 μM peptide substrate, 120 μM βNAD+, 10 nM SIRT1, 25 min at 25° C.; for EC1.5 (concentration of test compound that results in 150% activation of SIRT1): NA = not active in the assay; for Emax: read-out: % FOLD ACT. (percent maximum fold activation of SIRT1). In kind it is biochemical.

Take `COCCN1CCN(Cc2cnc3sc(-c4ccccc4NC(=O)c4cccc(-c5cc(F)ccc5F)n4)nc3c2)CC1` [Compound 145]: the “EC1.5 (concentration of test compound that results in 150% activation of SIRT1)” value amounted to 86 NM and the Emax worked out at 500%.

For the compound `COCCN1CCN(Cc2cnc3sc(-c4ccccc4NC(=O)c4cccc(-c5cccc(F)c5F)n4)nc3c2)CC1` [Compound 146], the “EC1.5 (concentration of test compound that results in 150% activation of SIRT1)” value is reported as 127 NM and the Emax is 500%.

Take `[2H]c1c([2H])c([2H])c(-c2cccc(C(=O)Nc3ccccc3-c3nc4cc(CN5CCCC5)cnc4s3)c2)c([2H])c1[2H]` [Compound 147]: the “EC1.5 (concentration of test compound that results in 150% activation of SIRT1)” value came to 845 NM and the Emax came out at 224%.

For `COCCN1CCN(Cc2cnc3sc(-c4ccccc4NC(=O)c4cccc(-c5cccc(C#N)c5)n4)nc3c2)CC1` [Compound 148], the “EC1.5 (concentration of test compound that results in 150% activation of SIRT1)” value is listed as 40 NM and the Emax stood at 500%.

As to `O=C(Nc1ccccc1-c1nc2cc(CN3CCCC3=O)cnc2s1)c1cccc(-c2ccccc2)c1` [Compound 149], the “EC1.5 (concentration of test compound that results in 150% activation of SIRT1)” value is 557 NM and the Emax amounted to 216%.

Take `Cn1cc(-c2ccccc2)cc1C(=O)Nc1ccccc1-c1nc2cc(CN3CCOCC3)cnc2s1` [Compound 150]: the “EC1.5 (concentration of test compound that results in 150% activation of SIRT1)” value stood at 67 NM and the Emax stood at 267%.

Turning to `Cn1cc(-c2ccccc2)cc1C(=O)Nc1ccccc1-c1nc2cc(CN3CCCC3)cnc2s1` [Compound 151], the “EC1.5 (concentration of test compound that results in 150% activation of SIRT1)” value worked out at 591 NM and the Emax came to 170%.

Consider `COCCN1CCN(Cc2cnc3sc(-c4ccccc4NC(=O)c4cc(-c5ccccc5)n[nH]4)nc3c2)CC1` [Compound 152], for which the “EC1.5 (concentration of test compound that results in 150% activation of SIRT1)” value is listed as 321 NM and the Emax is above 500%.

Regarding `O=C(Nc1ccccc1-c1nc2cc(CN3CCCC3)cnc2s1)c1cc(-c2ccccc2)n[nH]1` [Compound 153], the “EC1.5 (concentration of test compound that results in 150% activation of SIRT1)” value amounted to 829 NM and the Emax was determined as 226%.

On to `O=C(Nc1ccccc1-c1nc2cc(CN3CCCC3)cnc2s1)c1ccn(-c2ccccc2)n1` [Compound 154], for which the “EC1.5 (concentration of test compound that results in 150% activation of SIRT1)” value is 428 NM and the Emax stood at 277%.

On to `COCCN1CCN(Cc2cnc3sc(-c4ccccc4NC(=O)c4ccn(-c5ccccc5)n4)nc3c2)CC1` [Compound 155], for which the “EC1.5 (concentration of test compound that results in 150% activation of SIRT1)” value was determined as 141 NM and the Emax worked out at 364%.

As to `O=C(Nc1ccccc1-c1nc2cc(CN3CCOCC3)cnc2s1)c1ccn(-c2ccccc2)n1` [Compound 156], the “EC1.5 (concentration of test compound that results in 150% activation of SIRT1)” value stood at 674 NM and the Emax was 443%.
